# *1 amine or outer side, *2 acyl side, *3 side chain or, on linkers, in order; H or OH if unused. Where a SMILES comes first, the peptide text is derived from it. Bridges are numbered along the chain shown (N, C = ends). [ ]: non-standard residue; d: D form. The star is where a group is joined. Phe(3-CF3) = N[C@@H](Cc1cccc(C(F)(F)F)c1)C(=O)O; Ala(morpholin-4-yl) = N[C@@H](CN1CCOCC1)C(=O)O; Phe(4-COOH) = N[C@@H](Cc1ccc(C(=O)O)cc1)C(=O)O; Bip = N[C@@H](Cc1ccc(-c2ccccc2)cc1)C(=O)O; γGlu = O=C(O)[C@H](CCC(=O)[*:2])N[*:1]; NH(CH2)12COOH = O=C(O)CCCCCCCCCCCCN*; Val(3-OH) = CC(C)(O)[C@H](N)C(=O)O; Cha = N[C@@H](CC1CCCCC1)C(=O)O; Cit = NC(=O)NCCC[C@H](N)C(=O)O; Carboxymethyl = O=C(O)C*; NMeA = CN[C@@H](C)C(=O)O; Dab = NCC[C@H](N)C(=O)O; AEEA = NCCOCCOCC(=O)O
# Molecular target: T1, PD-1/PD-L1 interaction (PE-labeled human PD-L1-Ig binding to Jurkat cell line over-expressing human PD-1) (Homo sapiens, UniProt Q15116)
# T1 construct: expressed in transfected cells; host or cells: Jurkat
# Experiment: Jurkat-PD-1 Cell Binding High-Content Screening Assay (CBA)
# Settings: Jurkat-hPD-1 cells, PE-labeled PD-L1-Ig 20 nM final; read-out: Jurkat HPD1 PDL1 IC50
# In short: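 Cells 8×10^3/well, DMEM + 10% FCS; cpd 2 h, 37 °C; PE–PD-L1-Ig 20 nM final, 1 h; PFA fix + Hoechst 33342, 3× dPBS wash; high-content imager.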
# T1 sequence (Q15116 25-288): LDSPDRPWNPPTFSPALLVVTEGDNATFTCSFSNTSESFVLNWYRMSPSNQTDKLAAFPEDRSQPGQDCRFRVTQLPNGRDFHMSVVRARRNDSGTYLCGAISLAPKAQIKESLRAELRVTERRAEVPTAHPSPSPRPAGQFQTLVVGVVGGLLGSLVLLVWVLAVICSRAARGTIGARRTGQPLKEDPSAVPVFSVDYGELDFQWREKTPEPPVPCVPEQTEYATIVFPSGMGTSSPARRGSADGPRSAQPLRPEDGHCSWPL
row,SMILES,IC50 [µM]
1,CC(C)C[C@H]1NC(=O)[C@H](C)N(C)C(=O)[C@H](Cc2ccc(C(=O)O)cc2)NC(=O)[C@H](Cc2ccc(-c3ccccc3)cc2)NC(=O)[C@H](Cc2ccc(C(=O)O)cc2)NC(=O)[C@H](Cc2cccc(C(F)(F)F)c2)NC(=O)[C@H](CC(=O)O)NC(=O)[C@H](Cc2ccc(OCC(=O)O)cc2)NC(=O)[C@H](CN2CCOCC2)NC(=O)CSC[C@@H](C(=O)N[C@@H](CCN)C(=O)NCCOCCOCC(=O)N[C@@H](CCC(=O)NCCOCCOCC(=O)NCCCCCCCCCCCCC(=O)O)C(=O)O)NC(=O)[C@H](CO)NC(=O)[C@H](C(C)(C)O)NC(=O)[C@H](CC2CCCCC2)NC(=O)[C@H](CCN)NC1=O [Example 1180] ({CH2CO}-[Ala(morpholin-4-yl)]Y(Carboxymethyl)D[Phe(3-CF3)][Phe(4-COOH)][Bip][Phe(4-COOH)][NMeA][dL][Dab][Cha][Val(3-OH)]SC[Dab][AEEA][γGlu][AEEA]-{NH(CH2)12COOH}; thioether N-14),0.0918
2,COC[C@@H]1NC(=O)CSC[C@@H](C(=O)N[C@@H](CCN)C(=O)NCCOCCOCC(=O)N[C@@H](CCC(=O)NCCOCCOCC(=O)NCCCCCCCCCCCCC(=O)O)C(=O)O)NC(=O)[C@H](CO)NC(=O)[C@H](C(C)(C)O)NC(=O)[C@H](CC2CCCCC2)NC(=O)[C@H](CCN)NC(=O)[C@@H](CC(C)C)NC(=O)[C@H](C)N(C)C(=O)[C@H](CCCNC(N)=O)NC(=O)[C@H](Cc2ccc(-c3ccccc3)cc2)NC(=O)[C@H](Cc2ccc(C(=O)O)cc2)NC(=O)[C@H](Cc2cccc(C(F)(F)F)c2)NC(=O)[C@H](CC(=O)O)NC(=O)[C@H](Cc2ccc(OCC(=O)O)cc2)NC1=O [Example 1181] ({CH2CO}-S(Me)Y(Carboxymethyl)D[Phe(3-CF3)][Phe(4-COOH)][Bip][Cit][NMeA][dL][Dab][Cha][Val(3-OH)]SC[Dab][AEEA][γGlu][AEEA]-{NH(CH2)12COOH}; thioether N-14),0.0485
3,CC(C)C[C@H]1NC(=O)[C@H](C)N(C)C(=O)[C@H](CCC(N)=O)NC(=O)[C@H](Cc2ccc(-c3ccccc3)cc2)NC(=O)[C@H](Cc2ccc(C(=O)O)cc2)NC(=O)[C@H](Cc2cccc(C(F)(F)F)c2)NC(=O)[C@H](CC(=O)O)NC(=O)[C@H](Cc2ccc(OCC(=O)O)cc2)NC(=O)[C@H](Cc2ccc(C(=O)O)cc2)NC(=O)CSC[C@@H](C(=O)N[C@@H](CCN)C(=O)NCCOCCOCC(=O)N[C@@H](CCC(=O)NCCOCCOCC(=O)NCCCCCCCCCCCCC(=O)O)C(=O)O)NC(=O)[C@H](CC(=O)O)NC(=O)[C@H](C(C)(C)O)NC(=O)[C@H](CC2CCCCC2)NC(=O)[C@H](CCN)NC1=O [Example 1182] ({CH2CO}-[Phe(4-COOH)]Y(Carboxymethyl)D[Phe(3-CF3)][Phe(4-COOH)][Bip]Q[NMeA][dL][Dab][Cha][Val(3-OH)]DC[Dab][AEEA][γGlu][AEEA]-{NH(CH2)12COOH}; thioether N-14),0.093
4,CC(C)C[C@H]1NC(=O)[C@H](C)N(C)C(=O)[C@H](CCC(N)=O)NC(=O)[C@H](Cc2ccc(-c3ccccc3)cc2)NC(=O)[C@H](Cc2ccc(C(=O)O)cc2)NC(=O)[C@H](Cc2cccc(C(F)(F)F)c2)NC(=O)[C@H](CC(=O)O)NC(=O)[C@H](Cc2ccc(OCC(=O)O)cc2)NC(=O)[C@H](Cc2ccc(C(=O)O)cc2)NC(=O)CSC[C@@H](C(=O)N[C@@H](CCN)C(=O)NCCOCCOCC(=O)N[C@@H](CCC(=O)NCCOCCOCC(=O)NCCCCCCCCCCCCC(=O)O)C(=O)O)NC(=O)[C@H](CCC(=O)O)NC(=O)[C@H](C(C)C)NC(=O)[C@H](CC2CCCCC2)NC(=O)[C@H](CCN)NC1=O [Example 1183] ({CH2CO}-[Phe(4-COOH)]Y(Carboxymethyl)D[Phe(3-CF3)][Phe(4-COOH)][Bip]Q[NMeA][dL][Dab][Cha]VEC[Dab][AEEA][γGlu][AEEA]-{NH(CH2)12COOH}; thioether N-14),0.0941
5,CC(C)C[C@H]1NC(=O)[C@H](C)N(C)C(=O)[C@H](CCC(N)=O)NC(=O)[C@H](Cc2ccc(-c3ccccc3)cc2)NC(=O)[C@H](Cc2ccc(C(=O)O)cc2)NC(=O)[C@H](Cc2cccc(C(F)(F)F)c2)NC(=O)[C@H](CC(=O)O)NC(=O)[C@H](Cc2ccc(OCC(=O)O)cc2)NC(=O)[C@H](Cc2ccc(C(=O)O)cc2)NC(=O)CSC[C@@H](C(=O)N[C@@H](CCN)C(=O)NCCOCCOCC(=O)N[C@@H](CCC(=O)NCCOCCOCC(=O)NCCCCCCCCCCCCC(=O)O)C(=O)O)NC(=O)[C@H](CO)NC(=O)[C@H](C(C)(C)O)NC(=O)[C@H](CC2CCCCC2)NC(=O)[C@H](CCN)NC1=O [Example 1184] ({CH2CO}-[Phe(4-COOH)]Y(Carboxymethyl)D[Phe(3-CF3)][Phe(4-COOH)][Bip]Q[NMeA][dL][Dab][Cha][Val(3-OH)]SC[Dab][AEEA][γGlu][AEEA]-{NH(CH2)12COOH}; thioether N-14),0.044
6,CC(=O)NCCCC[C@@H]1NC(=O)[C@H](C(C)(C)O)NC(=O)[C@H](CC2CCCCC2)NC(=O)[C@H](CCN)NC(=O)[C@@H](CC(C)C)NC(=O)[C@H](C)N(C)C(=O)[C@H](CCC(N)=O)NC(=O)[C@H](Cc2ccc(-c3ccccc3)cc2)NC(=O)[C@H](Cc2ccc(C(=O)O)cc2)NC(=O)[C@H](Cc2cccc(C(F)(F)F)c2)NC(=O)[C@H](CC(=O)O)NC(=O)[C@H](Cc2ccc(OCC(=O)O)cc2)NC(=O)[C@H](Cc2ccc(C(=O)O)cc2)NC(=O)CSC[C@@H](C(=O)N[C@@H](CCN)C(=O)NCCOCCOCC(=O)N[C@@H](CCC(=O)NCCOCCOCC(=O)NCCCCCCCCCCCCC(=O)O)C(=O)O)NC1=O [Example 1185] ({CH2CO}-[Phe(4-COOH)]Y(Carboxymethyl)D[Phe(3-CF3)][Phe(4-COOH)][Bip]Q[NMeA][dL][Dab][Cha][Val(3-OH)]K(Ac)C[Dab][AEEA][γGlu][AEEA]-{NH(CH2)12COOH}; thioether N-14),0.0502
7,CC(C)C[C@H]1NC(=O)[C@H](C)N(C)C(=O)[C@H](CCCNC(N)=O)NC(=O)[C@H](Cc2ccc(-c3ccccc3)cc2)NC(=O)[C@H](Cc2ccc(C(=O)O)cc2)NC(=O)[C@H](Cc2cccc(C(F)(F)F)c2)NC(=O)[C@H](CC(=O)O)NC(=O)[C@H](Cc2ccc(OCC(=O)O)cc2)NC(=O)[C@H](Cc2ccc(C(=O)O)cc2)NC(=O)CSC[C@@H](C(=O)N[C@@H](CCN)C(=O)NCCOCCOCC(=O)N[C@@H](CCC(=O)NCCOCCOCC(=O)NCCCCCCCCCCCCC(=O)O)C(=O)O)NC(=O)[C@H](CC(=O)O)NC(=O)[C@H](C(C)(C)O)NC(=O)[C@H](CC2CCCCC2)NC(=O)[C@H](CCN)NC1=O [Example 1186] ({CH2CO}-[Phe(4-COOH)]Y(Carboxymethyl)D[Phe(3-CF3)][Phe(4-COOH)][Bip][Cit][NMeA][dL][Dab][Cha][Val(3-OH)]DC[Dab][AEEA][γGlu][AEEA]-{NH(CH2)12COOH}; thioether N-14),0.108
8,CC(C)C[C@H]1NC(=O)[C@H](C)N(C)C(=O)[C@H](CCCNC(N)=O)NC(=O)[C@H](Cc2ccc(-c3ccccc3)cc2)NC(=O)[C@H](Cc2ccc(C(=O)O)cc2)NC(=O)[C@H](Cc2cccc(C(F)(F)F)c2)NC(=O)[C@H](CC(=O)O)NC(=O)[C@H](Cc2ccc(OCC(=O)O)cc2)NC(=O)[C@H](Cc2ccc(C(=O)O)cc2)NC(=O)CSC[C@@H](C(=O)N[C@@H](CCN)C(=O)NCCOCCOCC(=O)N[C@@H](CCC(=O)NCCOCCOCC(=O)NCCCCCCCCCCCCC(=O)O)C(=O)O)NC(=O)[C@H](CO)NC(=O)[C@H](C(C)(C)O)NC(=O)[C@H](CC2CCCCC2)NC(=O)[C@H](CCN)NC1=O [Example 1187] ({CH2CO}-[Phe(4-COOH)]Y(Carboxymethyl)D[Phe(3-CF3)][Phe(4-COOH)][Bip][Cit][NMeA][dL][Dab][Cha][Val(3-OH)]SC[Dab][AEEA][γGlu][AEEA]-{NH(CH2)12COOH}; thioether N-14),0.0377

# Reference: patent publication US20260070945A1, “MACROCYCLIC IMMUNOMODULATORS” (Bristol-Myers Squibb Company, priority 2022, published 2026)
